Laboratory results as given in US5215738A, “Benzamide and nicotinamide radiosensitizers” (SRI International, priority 1990, dated 1993).
Where a name gives a salt, the structure may show the parent alone.

What was measured:
[1] = system: EMT6 tumors; assay: In vivo assay for radiosensitization activity (EMT6 tumors in BALB/c mice); set-up: species or system female BALB/c mice; key: 0: No radiosensitization; 1: Minimal radiosensitization (some radiosensitization relative to controls but lowest survival>3×lowest survival with MIS); 2: Moderate radiosensitization (not good as MIS, but lowest surviving fraction<3×lowest surviving fraction with MIS); 3: Good radiosensitization (equal to MIS); 4: Excellent radiosensitization (superior to MIS); settings: score 0 to 4 compared with MIS, 5 mmol/kg or 2/3 of the LD50, 2,000 rad
Protocol: In Vivo Assay for Radiosensitization Activity
The compounds of the invention are tested in vivo for radiosensitization activity by the assay of Brown, J. M. Radiation Res (1975) 64:633-47, incorporated herein by reference. For this assay EMT6 tumors in female BALB/c mice weighing 20-25 g are used. These mice are bred under specific pathogen-free conditions and are 3-4 months old at the beginning of each experiment. The EMT6 tumor is grown intradermally in the flank from an inoculation of 2×10^5 tumor cells taken from the 2nd-8th in vitro passage of the tumor cells since removal from the previous in vivo tumor. Two tumors per mouse are implanted, and are used as subject tumors when they reach a volume of approximately […]. At this point the tumors contain approximately 20% hypoxic cells.
Test compounds are compared against MIS in this assay. The test compound is tested at a fixed injected dose of either 5 mmol/kg or 2/3 of the LD50 (whichever is lower), MIS is injected into controls at the same dose. Additional suitable controls of test compound-injected but nonirradiated and saline-injected and irradiated mice are also included. A fixed radiation dose of 2,000 rad is applied at variable intervals of 5 min to 2 hr between injection and irradiation. Typically, irradiation is applied at 5, 10, 15, 20, 30, 45, 60, 90, and 120 min following intraperitoneal administration of both drugs. By using these intervals, the results give an indication of both the optimum time to irradiate and of how the test compound sensitizes in relationship to MIS.
Irradiation of the EMT6 tumors is done by irradiating nonanesthetized tumor-bearing mice in a Plexiglas box. Irradiation conditions are 250 kVp X-rays, 15 mA, FSC 33 cm, added filtration of 0.35 mm Cu, half value layer 1.3 mm Cu, and a dose rate of 317 rad/min.
Radiosensitization activity is judged by survival rate of dissected and cultured tumor cells as follows: The tumor-bearing mice are killed immediately after irradiation, and tumors dissected from the skin, cut into several pieces, and made into a fine brei by high-speed chopping with a razor blade attached to a jigsaw. The brei is added to 30 ml of Hank's buffered salt solution (HBSS) containing 0.02% DNase, 0.05% promase, and 0.02% collagenase. The suspension is stirred for 30 min at 37° C., filtered, and centrifuged at 1,600 rmp for 10 min at 4° C. The cell pellet is resuspended in complete Waymouth's medium plus 12-1/2% horse serum plus 2-12% fetal calf serum (FCS) and an aliquot mixed with trypan blue and counted with the use of a hemacytometer. […] After incubation for 13 days, the colonies are fixed and stained, and those containing 50 cells or more are counted. […]
The test compound is scored on the scale of 0 to 4 based on how it compares with MIS. […]

[2] = Cytotoxicity test (% cell survival, hypoxic cells); type: cell-based, Chinese hamster; settings: hamster, cho ha-1 cells, 10 mM, 22° C., hypoxia
Protocol: (§1) Cytotoxicity tests were also carried out on some of the compounds. The test procedure was as follows: Log-phase Chinese hamster ovary HA-1 cells were trypsinized (0.5% trypsin in Hank's buffered salt solution (HBSS)) and plated in 60 mm Permanox petri dishes in concentrations necessary to yield approximately 30 colonies after experimental treatment. The cells were allowed to attach overnight. Then the medium was removed from each dish and replaced with 2 ml of medium containing varying concentrations of the test compound. The petri dishes were then placed in nylon chamber fitted with gassing ports and, to achieve hypoxia, were gassed at room temperature with humidified N2 containing 5% CO2 ' for 1 hr at a rate of 1 l/min. The cells are then exposed to 10 mM of the test compound for 1 hr at 22° C. The % cell survival is read after such treatment.

[3] = system: Chinese hamster ovary HA-1 cells; assay: Cytotoxicity test (% cell survival, hypoxic cells); type: cell-based; settings: 10 mM, 1 hr, 22° C., hypoxia, CHO HA-1 cells; 60 min, 10000 µM
Protocol: as §1

[4] = Water solubility; type: physicochemical
[5] = system: normal cells (tail growth) and tumor cells; settings: nicotinamide administered prior to irradiating; cited from earlier work
[6] = system: Chinese hamster cells; settings: added during or after irradiation; non-hypoxic cells; cited from earlier work

Compound | Radiosensitization [1] | viability at 1 h, 10000 µM [2] [%] | further results
COCCNc1cncc(C(N)=O)c1 [3-(2-methoxyethylamino)nicotinamide, 3-(2-methoxyethylamino) nicotinamide] | 3 | – | –
NC(=O)c1cccc(OCCO)c1 [3-(2-hydroxyethoxy)benzamide] | 3 | 89 | –
NC(=O)c1cccc(O)c1 [3-hydroxybenzamide] | 3 | 90 | Cytotoxicity % Cell Survival [3]: 77%
NC(=O)c1cncc(O)c1 [5-hydroxynicotinamide sodium salt, 5-hydroxynicotinamide] | – | – | water solubility [4]: very water soluble
NC(=O)c1cccnc1 [nicotinamide] | 3 | – | enhancement ratio, normal vs tumor cells [5]: greater for normal cells in vivo than that exhibited for tumor cells
NC(=O)c1cccc(N)c1 [m-aminobenzamide] | – | – | sensitization to lethal effects of radiation [6]: found to sensitize these cells to the lethal effects of radiation
